Format in all cases: cell-based
The test system of assay [1] is Bv8 expression. The assay is described as follows: Bv8 expression in human leukemia cell lines. The procedure: U937, HL-60, THP-1, Hel 92.1.7, KG-1, K562, Jurkat cells were obtained from the ATCC® (Manassas, Va.). Most cells were grown in 10% FBS-containing RPMI. KG-1 cells were grown in 20% FBS-containing Iscove's modified Dulbecco's medium. For THP-1 cells, 10% FBS-containing RPMI was used with Sodium Pyruvate, HEPES and β-mercaptoethanol. For regulation studies, 1 million cells with viability higher than 95% were used. Regulation studies were performed under both normoxia and hypoxia conditions for 4 hr in 1 ml HBSS media containing 0.2% BSA.

For assay [2], the system named is PKR2/EG-VEGFR2 expression. The assay is described as follows: Regulation of PKR2/EG-VEGFR2 expression in human bone marrow cells and neutrophils. The text has this: Taqman reagents for human PKR1/EG-VEGFR1 and PKR2/EG-VEGFR2 were obtained from Applied Biosystems.
(§1) Recombinant human MCP-1, MIP-1α, MIP-1β, MIP-2, bFGF, VEGF, GM-CSF, G-CSF, SDF-1α, M-CSF, Erythropoietin (EPO) and TNFα were purchased from R&D Systems (Minneapolis, Minn.). Recombinant human IL-8, IFNγ, Bv8 (Prokineticin-2), IL-4, IL-10, IL-13, TGF-β were from PeproTech Inc. (Rocky Hill, N.J.). SCF (Stem Cell factor) was from Invitrogen Biosource (Carlsbad, Calif.). In some cases, G-CSF from Amgen (Neupogen/Filgrastim) was used. All cytokines were used at 10 ng/ml. Freshly purified cells were washed and re-suspended in HBSS media containing 0.2% BSA (low endotoxin, Serologicals Corp. Norcross, Ga.). Two million cells were incubated in 24-well plates with various cytokines and chemokines for 4 hr at 37° C. in a 5% CO2 incubator. Cells were then transferred into eppendorf tubes, centrifuged and lysed with RNA lysis buffer (Qiagen, Valencia, Calif.). Bv8 expression was assessed by Taqman with RPL19 (Ribosomal Protein L19) as the internal control gene.

Assay [3] deals with Bv8 expression. As to the kind of experiment: Regulation of Bv8 gene expression in cultured human blood and bone marrow cells (Taqman). The conditions noted are these: for induction of Bv8 expression in human neutrophils and whole bone marrow cells / Bv8 expression in monocytes and lymphocytes: 10 ng/ml, 4 hr. The procedure: RNA was prepared using the RNeasy™ Mini Kit (Qiagen). 50 ng total RNA per reaction was used for the real time PCR (Taqman) analysis. For human Bv8, testis RNA (BD Biosciences) served as control. Reactions were run on 9600 Emulation mode of 7500 Real time PCR system (Applied Biosystems, Foster City, Calif.) and the absolute quantification with standard curve was used with Sequence Detection System (SDS) software. The expression level of each gene was further quantified relative to the housekeeping gene RPL19 in the same sample. The sequences of Taqman primers are as follows: Human Bv8 forward: ATG GCA CGG AAG CTA GGA (SEQ ID NO: 10), reverse: GCAGAGCTGAAGTCCTCTTGA (SEQ ID NO: 11), probe: TGCTGCTGGACCCTTCCTAAACCT (SEQ ID NO: 12); Human RPL19 forward: CGC AAG CGC CGT GAA (SEQ ID NO: 28), reverse: GGTCTCTTCCTCCTTGGATAAAGTC (SEQ ID NO: 29), probe: CCAGGCCAAGAAGGAGGAGATCATCA (SEQ ID NO: 30). Human specific VEGF forward: AAT GAC GAG GGC CTG GAG T (SEQ ID NO: 31), reverse: TTGATCCGCATAATCTGCATG (SEQ ID NO: 32), probe: TGTGCCCACTGAGGAGTCCAACATCA (SEQ ID NO: 33).
as §1
(Real-time PCR tracks product formation cycle by cycle.)

Assay [4] relates to Bv8 expression. The assay is described as follows: Regulation of Bv8 gene expression in cultured mouse BMMNCs (Taqman). As to conditions: for up-regulation of Bv8 in unsorted BMMNCs: 10 ng/ml, 4 hr. The procedure: RNA from tissues or cells was prepared using the RNeasy Mini Kit® (Qiagen). 50 ng total RNA per reaction was used for the real time PCR (Taqman™) analysis. For mouse/human Bv8 and EG-VEGF/Bv8 receptor 1 (PKR-1/EG-VEGFR1, R-1), testis RNA (BD Biosciences) served as control. For mouse/human EG-VEGF/Bv8 receptor 2 (PKR-2/EG-VEGFR2, R2), hypothalamus or whole brain (BD Biosciences) served as the control tissues. Reactions were run on 9600 Emulation mode of 7500 Real […] time PCR system (Applied Biosystems) and the absolute quantification with standard curve was used with Sequence Detection System (SDS) software. The expression level of each gene was further quantified against the house-keeping gene RPL19 in the same sample. To confirm the expression of VEGFR-1, VEGFR-2, EG-VEGF/Bv8 R1 and EG-VEGF/Bv8 R2 in the tumor-associated endothelial cells, standard RT-PCR was conducted using the Titan One Tube™ RT-PCR system (Roche) and the end products were checked on 2% agarose gel (Invitrogen) for the correct size. The sequence of Taqman™ primers are as follows: […]
Recombinant mouse MCP-1, MIP-1α, MIP-1β, MIP-2, bFGF, VEGF, GM-CSF, G-CSF, SDF-1 and TNFα were purchased from R&D Systems (Minneapolis, Minn.). Recombinant mouse KC, IFNγ, Bv8 (Prokineticin-2), IL-4, IL-10, IL-13, TGF-β were from PeproTech Inc. (Rocky Hill, N.J.). […] Conditioned media at 1:3 dilution were used (final FBS concentration was 0.17%). Data were normalized against total cell number. BM cells were flushed from mouse leg bones with DMEM containing 10% FBS. Cells were centrifuged at 1200 rpm for 5 min and resuspended in HBSS media containing 0.2% BSA (low endotoxin, Serologicals Corp. Norcross, Ga.). Two million cells were incubated in 24-well plates with various cytokines for 4 hr at 37° C. in a 5% CO2 incubator. Cells were then transferred in eppendorf tubes, centrifuged and lysed by RNA lysis buffer (Qiagen, Valencia, Calif.). Bv8 expression was assessed by Taqman™ with RPL19 (Ribosomal Protein L19) as the internal control gene. In some cases, CD11b+Gr1+ or CD11b−Gr1− BM cells were obtained using FACS sorting.

In assay [5] the test system is human neutrophils. As to the kind of experiment: Chemotaxis of peripheral blood neutrophils. The procedure:
10^6 cells were washed with HBSS containing 0.2% BSA before putting into transwell insert with 5 μm pore size (Corning Incorporated, Lowell, Mass.). In the lower chamber, media alone or media with various cytokines at various concentrations (maximum at 200 ng/ml) was added. After 3 hr at 37° C., cells in the lower chamber were transferred, mixed with 9 ml ZPAK solution and counted on Z2 Coulter Particle Count and Size Analyzer (Beckman Coulter, Fullerton, Calif.).

As for “GM-CSF: recombinant mouse or human granulocyte-macrophage-CSF (R&D Systems)”, the “Bv8 expression in HL-60” value in assay [1] was “Neither G-CSF nor GM-CSF affected Bv8 expression”. Also, the “induction of Bv8 expression in leukemia cell lines” value in assay [1] (any of the cell lines tested) is on record as “no significant induction”. In assay [2], the “regulation of PKR2/EG-VEGFR2 in human bone marrow” value was “regulate PKR2/EG-VEGFR2 to a significant level”. Moreover, in assay [2] (4 hr incubation, average), the “up-regulation of PKR2/EG-VEGFR2 expression in human neutrophils” value is listed as 4 fold. For the same molecule, the “induction of Bv8 expression in human neutrophils and whole bone marrow cells” value in assay [3] is reported as around 2.5 fold. Moreover, the “inhibition of Bv8 expression in human monocytes” value in assay [3] (4 hr treatment) is “about 75%”. Besides, the “effect on Bv8 expression” value in assay [4] (BMMNCs and sorted subsets (FIG. 1 c&d)) is reported as “no effect”.
Take IL-1β: cytokine interleukin-1β: in assay [3], the “induction of Bv8 expression in human neutrophils and whole bone marrow cells” value was “no stimulatory effect”.
For the molecule IL-6: cytokine interleukin-6, the “induction of Bv8 expression in human neutrophils and whole bone marrow cells” value in assay [3] is given as “no stimulatory effect”. Besides, the “up-regulation of Bv8 in unsorted BMMNCs” value in assay [4] is given as “did not show any significant stimulation”.
For the molecule “IL-8: recombinant human IL-8 (PeproTech)”, the “concentration required to stimulate neutrophil migration” value in assay [5] stood at 20 nM.
Regarding “MCP-1: recombinant human MCP-1 (R&D Systems)”, in assay [5] (all concentrations tested, data not shown), the “effect on neutrophil migration” value is reported as “did not show any effect”.
As to “SCF: Stem Cell factor (Invitrogen Biosource)”, the “induction of Bv8 expression in human neutrophils and whole bone marrow cells” value in assay [3] is “no effect”.
“SDF-1: recombinant mouse SDF-1 (R&D Systems)”: the “up-regulation of Bv8 in unsorted BMMNCs” value in assay [4] is given as “did not show any significant stimulation”.
SDF-1α: in assay [5], the “concentration required to stimulate neutrophil migration” value was found to be 20 nM. In addition, the “Bv8 expression in monocytes and lymphocytes” value in assay [3] was “significant stimulatory effect only on monocytes”.

B1: M-CSF: recombinant human M-CSF (R&D Systems) (protein, UniProt P09603 33-554, looked up)
Macrophage colony-stimulating …: EEVSEYCSHMIGSGHLQSLQRLIDSQMETSCQITFEFVDQEQLKDPVCYLKKAFLLVQDIMEDTMRFRDNTPNAIAIVQLQELSLRLKSCFTKDYEEHDKACVRTFYETPLQLLEKVKNVFNETKNLLDKDWNIFSKNCNNSFAECSSQDVVTKPDCNCLYPKAIPSSDPASVSPHQPLAPSMAPVAGLTWEDSEGTEGSSLLPGEQPLHTVDPGSAKQRPPRSTCQSFEPPETPVVKDSTIGGSPQPRPSVGAFNPGMEDILDSAMGTNWVPEEASGEASEIPVPQGTELSPSRPGGGSMQTEPARPSNFLSASSPLPASAKGQQPADVTGTALPRVGPVRPTGQDWNHTPQKTDHPSALLRDPPEPGSPRISSLRPQGLSNPSTLSAQPQLSRSHSSGSVLPLGELEGRRSTRDRRSPAEPEGGPASEGAARPLPRFNSVPLTDTGHERQSEGSFSPQLQESVFHLLVPSVILVLLAVGGLLFYRWRRRSHQEPQRADSPLEQPEGSPLTQDDRQVELPV
Turning to B1, the “induction of Bv8 expression in human neutrophils and whole bone marrow cells” value in assay [3] was “no effect”.

B2: IL-10: recombinant human IL-10 (PeproTech) (protein, UniProt P22301 19-178, looked up)
Interleukin-10: SPGQGTQSENSCTHFPGNLPNMLRDLRDAFSRVKTFFQMKDQLDNLLLKESLLEDFKGYLGCQALSEMIQFYLEEVMPQAENQDPDIKAHVNSLGENLKTLRLRLRRCHRFLPCENKSKAVEQVKNAFNKLQEKGIYKAMSEFDIFINYIEAYMTMKIRN
For the molecule B2, the “Bv8 expression in monocytes and lymphocytes” value in assay [3] is reported as “up-regulated”.

For the origin of these results see patent US9284369B2, “Inhibition of angiogenesis” (Genentech, Inc., priority 2007, dated 2016).
